Assays:
Type in all cases: in vivo
[1] = test system: Echinochloa crus-galli (ECHCG); test: B2 Post-emergence herbicidal activity; design: key to Post-emergence herbicidal activity, ECHCG (damage score 0-5): 5=total damage to plant; 0=no damage to plant; conditions: post-emergence application, rate 1000 g/ha, evaluated after 13 days
Procedure, shortened: (§1)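 Scores run from 0 for undamaged to 5 for fully killed plants, assessed 13 days post-spray. Application was post-emergence at 8 days of growth, using an acetone/water (50:50), 0.5% Tween 20 spray solution; growth at 24 °C day, 16 °C night, 65% humidity.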

[2] = test system: Lolium perenne (LOLPE); test: B2 Post-emergence herbicidal activity; conditions: post-emergence application, rate 1000 g/ha, evaluated after 13 days
Description: (§2) Seeds of a variety of test species were sown in standard soil in pots: Triticum aestivium (TRZAW), Avena fatua (AVEFA), Alopecurus myosuroides (ALOMY), Echinochloa crus-galli (ECHCG), Lolium perenne (LOLPE), Zea Mays (ZEAMX), Abutilon theophrasti (ABUTH), Amaranthus retroflexus (AMARE) and Setaria fabenri (SETFA). After 8 days cultivation (post-emergence) under controlled conditions in a glasshouse (at 24/16° C., day/night; 14 hours light; 65% humidity), the plants were sprayed with an aqueous spray solution derived from the formulation of the technical active ingredient in acetone I water (50:50) solution containing 0.5% Tween 20 (polyoxyethelyene sorbitan monolaurate, CAS RN 9005-64-5). The test plants were then grown in a glasshouse under controlled conditions (at 24/16° C., day/night; 14 hours light; 65% humidity) and watered twice daily. After 13 days, the test was evaluated (5=total damage to plant; 0=no damage to plant).

[3] = test system: Lolium perenne (LOLPE); test: B1 Pre-emergence herbicidal activity; design: key to Pre-emergence herbicidal activity, LOLPE (damage score 0-5): 5=total damage to plant; 0=no damage to plant; conditions: pre-emergence application, rate 1000 g/ha, evaluated after 13 days
Procedure, shortened: (§3)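 Test species received a pre-emergence application one day post-sowing in an acetone/water solution with 0.5% Tween 20. Phytotoxicity was assessed 13 days later on a scale where 0 means no damage and 5 total plant death.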

[4] = test system: Echinochloa crus-galli (ECHCG); test: B1 Pre-emergence herbicidal activity; conditions: pre-emergence application, rate 1000 g/ha, evaluated after 13 days
Procedure, shortened: as §3

[5] = test system: Setaria fabenr (SETFA); test: B1 Pre-emergence herbicidal activity; design: key to Pre-emergence herbicidal activity, SETFA (damage score 0-5): 5=total damage to plant; 0=no damage to plant; conditions: pre-emergence application, rate 1000 g/ha, evaluated after 13 days
Procedure, shortened: as §3

[6] = test system: Avena fatua (AVEFA); test: B2 Post-emergence herbicidal activity; conditions: post-emergence application, rate 1000 g/ha, evaluated after 13 days
Description: as §2

[7] = test system: Avena fatua (AVEFA); test: B1 Pre-emergence herbicidal activity; design: key: 5=total damage to plant; 0=no damage to plant; conditions: pre-emergence application, rate 1000 g/ha, evaluated after 13 days
Procedure, shortened: as §3

[8] = test system: Alopecurus myosuroides (ALOMY); test: B1 Pre-emergence herbicidal activity; design: key: 5=total damage to plant; 0=no damage to plant; conditions: pre-emergence application, rate 1000 g/ha, evaluated after 13 days
Procedure, shortened: as §3

[9] = test system: Setaria fabenri (SETFA); test: B2 Post-emergence herbicidal activity; design: key: 5=total damage to plant; 0=no damage to plant; conditions: post-emergence application, rate 1000 g/ha, evaluated after 13 days
Procedure, shortened: as §1

[10] = test system: Alopecurus myosuroides (ALOMY); test: B2 Post-emergence herbicidal activity; design: key: 5=total damage to plant; 0=no damage to plant; conditions: post-emergence application, rate 1000 g/ha, evaluated after 13 days
Procedure, shortened: as §1

[11] = test system: Triticum aestivium (TRZAW); test: B2 Post-emergence herbicidal activity; design: key: 5=total damage to plant; 0=no damage to plant; conditions: post-emergence application, rate 1000 g/ha, evaluated after 13 days
Procedure, shortened: as §1

[12] = test system: Triticum aestivium (TRZAW); test: B1 Pre-emergence herbicidal activity; design: key: 5=total damage to plant; 0=no damage to plant; conditions: pre-emergence application, rate 1000 g/ha, evaluated after 13 days
Procedure, shortened: as §3

SMILES	Post-emergence herbicidal activity, ECHCG (damage score 0-5) [1]	Post-emergence herbicidal activity, LOLPE (damage score 0-5) [2]	Pre-emergence herbicidal activity, LOLPE (damage score 0-5) [3]	Pre-emergence herbicidal activity, ECHCG (damage score 0-5) [4]	Pre-emergence herbicidal activity, SETFA (damage score 0-5) [5]	Post-emergence herbicidal activity, AVEFA (damage score 0-5) [6]	Pre-emergence herbicidal activity, AVEFA (damage score 0-5) [7]	Pre-emergence herbicidal activity, ALOMY (damage score 0-5) [8]	Post-emergence herbicidal activity, SETFA (damage score 0-5) [9]	Post-emergence herbicidal activity, ALOMY (damage score 0-5) [10]	Post-emergence herbicidal activity, TRAZW (damage score 0-5) [11]	Pre-emergence herbicidal activity, TRAZW (damage score 0-5) [12]
CCC(=O)Nc1ccc(-c2cncnc2)nc1C#N [Compound C116]	4	1	0	3	5	2	1	0	5	0	0	
O=C(Nc1ccc(-c2cncnc2)nc1C(F)(F)F)c1ccccc1 [Compound C17]	5	2	1	4	5	3	3	0		0	0	0
CCCC(=O)Nc1ccc(-c2cncc(F)c2)nc1C(F)(F)F [Compound C22]	4	2	1	4	5	3	2	0		0	0	0
O=C(Nc1ccc(-c2cncc(F)c2)nc1C(F)(F)F)C1CCC1 [Compound C21]	5	2	1	4	5	3	2	0		0	0	0
O=C(Nc1ccc(-c2cncc(F)c2)nc1C(F)(F)F)C1CCCCC1 [Compound C20]	4	2	0	4	5	3	2	0		0	0	0
O=C(CC1CCCCC1)Nc1ccc(-c2cncc(F)c2)nc1C(F)(F)F [Compound C19]	4	1	0	3	5	3	2	0		0	0	0
